In US20240053368A1, “METHOD FOR EVALUATING BLOOD PARAMETERS” (SEDICIDODICI S.R.L., priority 2020, published 2024):

Tests used:
[1] = tested on: platelets (platelet aggregate formation); test: ex-vivo dynamic evaluation of the coagulation process in a whole-blood sample under flow: platelet aggregate formation; design: species or system human; conditions: mean value, blood of subjects under the therapy, 8-bit acquisition system
Source text: According to some embodiments, the method of the invention comprises the following steps: • a) providing a whole-blood sample taken from a subject and added with an anti-coagulant substance; • b) treating the blood sample of step a) with a solution consisting of fluorescent probes for marking platelets and fibrin capable of binding more or less specifically to platelets and fibrin and emitting fluorescent light on two different emission frequencies and of a recalcification solution of the blood sample. […]
(§1) From a study carried out on healthy subjects not subjected to anticoagulant or antiplatelet therapy (controls), mean values of the parameters calculated as described above were obtained. […]

[2] = tested on: fibrin (fibrin formation); test: ex-vivo dynamic evaluation of the coagulation process in a whole-blood sample under flow: fibrin formation; design: species or system human; conditions: mean value
Source text: According to some embodiments, the method of the invention comprises the following steps: • a) providing a whole-blood sample taken from a subject and added with an anti-coagulant substance; • b) treating the blood sample of step a) with a solution consisting of fluorescent probes for marking platelets and fibrin capable of binding more or less specifically to platelets and fibrin and emitting fluorescent light on two different emission frequencies and of a recalcification solution of the blood sample. The two aforesaid solutions can also be combined in a single solution or single reagent; • c) introducing said recalcified blood sample into an analytical device having at least one perfusion chamber, in which at least one wall consists of a transparent material comprising a cytoadhesive substance, the blood sample being made to flow into the perfusion chamber in known and measurable flow conditions; • d) during the blood flow in the perfusion chamber, alternately acquiring at least two series of fluorescence images, so that at least one series of fluorescence images is acquired at an emission wavelength characteristic of the fluorescent probe for platelets and at least one other series of fluorescence images is acquired at another emission wavelength characteristic of the fluorescent probe for fibrin; • e) binarizing the pixels of the acquired images for the platelets and for the fibrin, so as to generate a first curve of area covered by illuminated pixels vs. time (t) for the formation of a platelet aggregate and a second curve of area covered by illuminated pixels vs. time for the fibrin formation; • f) generating a first curve of average fluorescence intensity vs. time for the formation of the platelet aggregate and a second curve of average fluorescence intensity vs. time for the fibrin formation; • the method further comprising at least one of the following steps: • g) generating a first integrated density curve defined as the product of area and fluorescence intensity vs. time for the formation of the platelet aggregate and a second integrated density curve defined as the product of area and fluorescence intensity vs. time for the fibrin formation; • h) generating a curve of particle number vs. time, in which the number of particles is given by the number of platelet aggregates consisting of more than 2 illuminated pixels; • i) generating a curve of particle size vs. time, in which the particle size is given by the average size of the platelet aggregates consisting of more than 2 illuminated pixels; • j) generating values of maximum slope, defined as the relative maximum points of the first derivative function calculated for the curves of the parameter obtained in one or more of steps e), f), g), h) and i); • k) generating values of maximum acceleration, defined as the relative maximum points of the second derivative function calculated for the curves of the parameter obtained in one or more of steps e), f), g), h) and i); • l) generating values of F/P ratio, defined as the ratio of the AUCs of fibrin to the AUCs of the platelets of the parameter obtained in one or more of steps e), f) and g); • the method further comprising the steps of: • m) generating a lag time value representing the fibrin formation time defined as the time corresponding to the first occurrence of five consecutive images in which the value of the measured area related to fibrin is >1% of the maximum peak value of the curve; • n) generating the AUC (Area Under the Curve) values given by the area under the curve of the parameter obtained in one or more of steps e), f), g), h) and i).
as §1

With `CC(=O)Oc1ccccc1C(=O)O` [ASA, acetylsalicylic acid] the “Platelets AUC Area” value ([1]; area under the curve of the area curve) was 3.4 ×10^7, the “Platelets AUC MGV” value ([1]; area under the curve of the fluorescence intensity curve) was 2.0 ×10^4 and the “Platelets AUC ID” value ([1]; area under the curve of the integrated density curve) was 3.0 ×10^9. The “F/P Area” value ([2]; AUC Area ratio of fibrin to platelets, subjects under the therapy) was 1.0, the “F/P ID” value ([2]; AUC ID ratio of fibrin to platelets, subjects under the therapy) was 2.2 and the “F/P MGV” value ([2]; AUC MGV ratio of fibrin to platelets, subjects under the therapy) was 1.2. For the same molecule, the “Fibrin AUC Area” value ([2]; blood of subjects under the therapy, area under the curve of the area curve, 8-bit acquisition system) was 3.0 ×10^7, the “Fibrin AUC MGV” value ([2]; blood of subjects under the therapy, area under the curve of the fluorescence intensity curve, 8-bit acquisition system) was 2.0 ×10^4 and the “Fibrin AUC ID” value ([2]; blood of subjects under the therapy, area under the curve of the integrated density curve, 8-bit acquisition system) was 4.3 ×10^9.
